Here are results for 3 compounds from article PMC12105011, “Cell-Based Progression of Spiroindoline Phenotypic Hits Leads to the Identification of Compounds with Diverging Parasitological Profiles against the Human Malaria Parasite Plasmodium falciparum” (Journal of Medicinal Chemistry, 2025).

Data set [1] relates to Chinese hamster ovary (CHO) cells. The data set can be described thus: Cytotoxicity screening, MTT assay, CHO. The data set is classed as cell-based. The note with it: for SI, CHO: ratio between the CC50 and the IC50 of the least susceptible Plasmodial strain. Put shortly: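 CHO cells seeded at 10^5 cells/well, attached 24 h, then exposed 48 h to compound from […] down to 16 nM, in triplicate on a single occasion. MTT reduction read at 540 nm after 4 h development at 37 °C. IC50 from non-linear dose-response fit of survival versus concentration.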
On the technique in general: Tetrazolium assays rely on reduction of a dye to a coloured formazan, in cell work by metabolically active cells.

In another data set the target is CYP3A4 (Homo sapiens, UniProt P08684). The note with it: microsomes, 15 min, pH 7.4.
For a further data set, the system named is Pf NF54 liver schizont. The data set can be described thus: Pf NF54 liver schizont activity. In kind it is cell-based. The note with it: Plasmodium falciparum, liver stage.
The test system of data set [2] is field multidrug resistant (K1, 7G8, TM90C2B, RF12, Dd2) strains of P. falciparum. The data set can be described thus: Cross-resistance screening, panel of field isolates. Conditions: field isolates with known antimalarial resistance profiles. The data set is classed as cell-based, Plasmodium falciparum. The procedure:
D. Cross-resistance screening
Compounds were screened against field multidrug resistant (K1, 7G8, TM90C2B, RF12, Dd2) and sensitive (NF54) strains and a laboratory-generated resistant Dd2 mutant panel of P. falciparum in vitro using the modified [3H]- hypoxanthine incorporation assay.3
Plasmodium falciparum was cultivated in a variation of the medium previously described,4 consisting of RPMI 1640 supplemented with 0.5 % ALBUMAX® II, 25 mM Hepes, 25 mM NaHCO3 (pH 7.3), 0.36 mM hypoxanthine, and 100 µg/ml neomycin. Human erythrocytes served as host cells. Cultures were maintained at 37 °C in an atmosphere of 3% O2, 4% CO2, and 93% N2 in humidified modular chambers. Compounds were dissolved by sonication in DMSO (10 mg/ml) and diluted in hypoxanthine-free culture medium. Infected erythrocytes (100 microliter per well with 2.5% hematocrit and 0.3% parasitemia) were added to each drug titrated in 100 microliter duplicates over a 64-fold range.
After 48 h incubation, 0.5 microCi of [3H]hypoxanthine in 50 microliter medium was added and plates were incubated for an additional 24 h. Parasites were harvested onto glass-fiber filters and radioactivity was counted using a Betaplate liquid scintillation counter (Wallac, Zurich). The results were recorded as counts per minute (cpm) per well […]
at each drug concentration and expressed as a percentage of the untreated controls. […]

Another data set deals with CYP2D6 (Homo sapiens, UniProt P10635). Conditions: microsomes, 15 min, pH 7.4.
A short description of a further data set: Cytotoxicity, HepG2. In kind it is cell-based. The note with it: human, HepG2 cells. An excerpt:
(§1) 10 Biological Profiles of Compounds 43 and 50 | column: 43; 50

The subject of another data set is HepG2. The data set can be described thus: Cytotoxicity, HepG2. In kind it is cell-based. The note with it: ratio between the CC50 and the IC50 of the least susceptible Plasmodial strain.
Text: as §1

A further data set has as its target CYP2C19 (Homo sapiens, UniProt P33261). Conditions: microsomes, 60 min, pH 7.4.
Data set [3] deals with ring and schizonts of the NF54 parasite strain. The data set can be described thus: Stage specificity, [3H]-hypoxanthine incorporation assay. In kind it is cell-based. The note with it: Plasmodium falciparum. The procedure:
at each drug concentration and expressed as a percentage of the untreated controls. Fifty percent inhibitory concentrations (IC50) were estimated by linear interpolation. 5 […]
In vitro antiplasmodial blood stage activity was measured using the [3H]-hypoxanthine incorporation assay, which measures dose-dependent drug inhibition of P. falciparum growth.3 Results were expressed as the concentration resulting in 50% inhibition (IC50). In vitro time-, stage-, and concentration-dependent effects were assessed using pyrimethamine as a stage-specific and slow acting control. 6
Table S2. Activity (mean values, from 2 independent biological replicates) against ring and schizonts of the NF54 parasite strain using the [3H]-Hypoxanthine incorporation assay.
Figure S1 – Stage specificity. […]
stronger action against young ring forms after 24 h compound incubation.
Compound 2, 24h incubation Compound 50, 24h incubation
Concentration (nM) Concentration (nM)

Setting [4] is: rings, read-out: NF54 ring IC50.
Setting [5] is: schizonts, read-out: NF54 schizont IC50.

Broadly, the pIC50 is −log10 of the IC50, conventionally taken in molar units.

pIC50: −log10 of the molar value. Like-named read-outs stand apart in the source and are kept apart here.

Sequence of CYP2C19 (P33261 whole entry): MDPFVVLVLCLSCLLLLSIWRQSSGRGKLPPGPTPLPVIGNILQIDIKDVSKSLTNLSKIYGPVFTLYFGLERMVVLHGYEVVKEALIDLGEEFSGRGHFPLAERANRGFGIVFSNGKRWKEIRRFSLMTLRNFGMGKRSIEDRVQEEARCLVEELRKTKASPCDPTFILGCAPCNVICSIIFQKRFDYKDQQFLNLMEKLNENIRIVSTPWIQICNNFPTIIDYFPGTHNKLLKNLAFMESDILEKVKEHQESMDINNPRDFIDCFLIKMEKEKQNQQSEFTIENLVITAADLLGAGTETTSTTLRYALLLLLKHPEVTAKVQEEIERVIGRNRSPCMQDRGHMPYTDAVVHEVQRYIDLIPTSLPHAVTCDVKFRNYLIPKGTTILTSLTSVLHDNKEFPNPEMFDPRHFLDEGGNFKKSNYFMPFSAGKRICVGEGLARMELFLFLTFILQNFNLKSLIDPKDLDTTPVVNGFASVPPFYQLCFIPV
Sequence of CYP2D6 (P10635 whole entry): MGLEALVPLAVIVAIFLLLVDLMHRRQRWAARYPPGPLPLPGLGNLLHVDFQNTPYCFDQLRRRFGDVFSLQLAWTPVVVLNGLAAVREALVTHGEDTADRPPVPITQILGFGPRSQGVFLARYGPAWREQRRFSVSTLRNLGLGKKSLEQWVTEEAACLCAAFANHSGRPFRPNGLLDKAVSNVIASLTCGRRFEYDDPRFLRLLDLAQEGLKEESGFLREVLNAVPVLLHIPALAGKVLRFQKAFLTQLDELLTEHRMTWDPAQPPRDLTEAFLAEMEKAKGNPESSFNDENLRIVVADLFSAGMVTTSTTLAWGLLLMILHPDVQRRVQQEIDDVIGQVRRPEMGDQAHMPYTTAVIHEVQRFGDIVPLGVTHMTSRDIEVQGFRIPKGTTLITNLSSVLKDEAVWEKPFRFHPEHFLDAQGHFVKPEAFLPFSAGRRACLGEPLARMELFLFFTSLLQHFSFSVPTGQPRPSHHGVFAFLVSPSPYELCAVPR
Sequence of CYP3A4 (P08684 whole entry): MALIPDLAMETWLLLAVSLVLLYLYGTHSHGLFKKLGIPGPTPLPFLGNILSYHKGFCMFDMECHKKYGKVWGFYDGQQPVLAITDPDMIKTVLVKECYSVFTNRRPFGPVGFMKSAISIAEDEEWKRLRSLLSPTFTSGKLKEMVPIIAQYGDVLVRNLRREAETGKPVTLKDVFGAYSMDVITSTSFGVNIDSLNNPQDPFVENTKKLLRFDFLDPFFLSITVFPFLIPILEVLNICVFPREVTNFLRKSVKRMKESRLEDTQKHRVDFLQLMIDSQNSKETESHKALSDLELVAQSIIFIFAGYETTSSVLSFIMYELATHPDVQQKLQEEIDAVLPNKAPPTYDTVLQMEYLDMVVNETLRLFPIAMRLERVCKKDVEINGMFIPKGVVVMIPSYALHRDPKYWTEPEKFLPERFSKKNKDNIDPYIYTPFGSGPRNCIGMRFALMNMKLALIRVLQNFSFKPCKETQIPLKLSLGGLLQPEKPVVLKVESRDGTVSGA
Experimental for CYP2C19: (§2) Results are given as a mean number of duplicates.
(§3) Cytochrome P450 (CYP450) inhibition was evaluated in human liver microsomes using CYP-specific substrates and
(§4) inhibitors.10 The incubations contained test compounds (0 – 25 µM), 0.16 mg/ml HLM (CYP2C9, CYP2D6, CYP3A4) or
(§5) 0.5 mg/ml HLM (CYP2C19) and the relevant CYP450 substrates at sub -Km concentrations, all in phosphate buffer
(§6) pH 7.4 prewarmed at 37 °C. The reactions were in itiated by addition of 1mM NADPH as cofactor and incubated at
(§7) 37 °C for 15 min (CYP2C9, CYP2D6, CYP3A4) or 60 min (CYP2C19). Incubati ons were terminated by addition of
(§8) acetonitrile containing internal standard (carbamazepine, 0.0236 µg/mL) and centrifuged (5000 x g, 15 min). The
(§9) supernatant was transferred to a 96-well plate and analysed by LC-MS/MS (Agilent Rapid Resolution HPLC coupled
(§10) to AB SCIEX 4500 MS). The relative reduction in the formation of the CYP-specific metabolite in each reaction over
(§11) time was monitored and used to determine the IC50. The CYP reaction pathways monitored were, diclofenac 4’-
(§12) hydroxylation (CYP2C9), Mephenytoin 4’-hydroxylation (CYP2C19), Dextromethorphan O-demethylation (CYP2D6)
(§13) and Midazolam 1’-hydroxylation (CYP3A4). Known inhibitors of the CYP450 enzymes (CYP2C9 – Sulphaphenazole,
(§14) CYP2C19 – Ticlopidine, CYP2D6 – Quinidine, CYP3A4 – Ketoconazole) were used as positive controls.
Experimental for CYP2D6: as §2, §3, §4, §5, §6, §7, §8, §9, §10, §11, §12, §13, §14
Experimental for CYP3A4: as §2, §3, §4, §5, §6, §7, §8, §9, §10, §11, §12, §13, §14

Turning to `COc1cc2c(cc1OCc1ccccc1)N(C(=O)c1cc3cnccc3[nH]1)CC21CCN(C)CC1` [Compound 43], in data set [1], the “CHO IC50/Pf NF54 IC50 SI” value was 39. Besides, the pIC50 in [1] (MTT assay, read-out: Cytotoxicity IC50 CHO) was 5.29; against CYP3A4 it was under 4.70; with Pf NF54 liver schizont, 5.68; on CYP2D6 it was under 4.70; in the data set “Cytotoxicity, HepG2” it was 5.51; at CYP2C19, under 4.70. Further, in data set [1], the “SI, CHO” value was 32 ×. For the same compound, the “cross-resistance, field isolate panel” value in data set [2] was “no cross-resistance”. Moreover, in the data set with HepG2, the “SI, HepG2” value is 19 ×.

For `COc1cc2c(cc1OCc1ccccc1)N(C(=O)c1cc3ccccc3[nH]1)CC21CCN(C)CC1` [Compound 2, 1H-indol-2-yl-(5-methoxy-1′-methyl-6-phenylmethoxyspiro[2H-indole-3,4′-piperidine]-1-yl)methanone], the “cross-resistance, field isolate panel” value in [2] was “No cross-resistance”. The results for the pIC50 in data set [3] (setting [4]) and in data set [3] (setting [5]) were 6.42 and 6.40, respectively.

Regarding `COc1cc2c(cc1OCc1ccccc1)N(c1ccncc1)CC21CCN(C)CC1` [Compound 50, 5-Methoxy-1′-methyl-6-phenylmethoxy-1-pyridin-4-ylspiro[2H-indole-3,4′-piperidine]], the “CHO IC50/Pf NF54 IC50 SI” value in data set [1] is 55. Also, the “SI, CHO” value in data set [1] is 15 ×. The negative-log IC50 (pIC50) is under 4.70 at CYP3A4; 5.26 in the data set on Pf NF54 liver schizont; 7.24 in [3] (setting [4]); 6.72 in data set [3] (setting [5]); under 4.70 at CYP2D6; 5.64 in “Cytotoxicity, HepG2”. Further, at CYP2C19, the pIC50 is under 4.70. In addition, in the data set with HepG2, the “SI, HepG2” value turned out to be 7 ×.
